Assay results from PubChem BioAssay (NCI).
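96-well plates; 48 h exposure; 5 concentrations. Endpoints by linear interpolation between flanking doses. Not reached: highest tested concentration assigned. Here, GI50 denotes the concentration required for 50% inhibition of growth. At the TGI there is no net growth.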

What was measured:
Assay in all cases: NCI tumour cell line growth inhibition, 48 h
UACC-257 melanoma = system: UACC-257 melanoma
T-47D breast = system: T-47D breast
HOP-92 NSCLC = system: HOP-92 NSCLC
MCF7 breast = system: MCF7 breast
MDA-MB-435 = system: MDA-MB-435
HCT-15 colon = system: HCT-15 colon
HT29 colon = system: HT29 colon
SF-295 CNS = system: SF-295 CNS
786-0 renal = system: 786-0 renal
UACC-62 melanoma = system: UACC-62 melanoma

Cc1cccc2c1ccc1c3occ(C)c3c(=O)oc21 gave a GI50 (UACC-257 melanoma) of over 100 µM, a TGI (UACC-257 melanoma) of over 100 µM and a GI50 (T-47D breast) of 9.65 µM. The TGI (T-47D breast) was over 100 µM, the GI50 (HOP-92 NSCLC) was 49.9 µM and the TGI (HOP-92 NSCLC) was over 100 µM. For the same molecule, the GI50 (MCF7 breast) was 23.4 µM, the TGI (MCF7 breast) was over 100 µM and the GI50 (MDA-MB-435) was over 100 µM. It also gave a TGI (MDA-MB-435) of over 100 µM, a GI50 (HCT-15 colon) of over 100 µM and a TGI (HCT-15 colon) of over 100 µM. The GI50 (HT29 colon) was over 100 µM, the TGI (HT29 colon) was over 100 µM and the GI50 (SF-295 CNS) was over 100 µM. For the same molecule, the TGI (SF-295 CNS) was over 100 µM, the GI50 (786-0 renal) was over 100 µM and the TGI (786-0 renal) was over 100 µM. It also gave a GI50 (UACC-62 melanoma) of over 100 µM and a TGI (UACC-62 melanoma) of over 100 µM.

COc1ccc(OC)c(-c2cc(C(=O)O)c3cc4ccccc4cc3n2)c1 gave a TGI (UACC-257 melanoma) of over 100 µM, a TGI (T-47D breast) of over 100 µM and a TGI (HOP-92 NSCLC) of over 100 µM. For the same molecule, the TGI (MCF7 breast) was over 100 µM, the TGI (MDA-MB-435) was over 100 µM and the TGI (HCT-15 colon) was over 100 µM. The TGI (HT29 colon) was over 100 µM, the TGI (SF-295 CNS) was over 100 µM and the TGI (786-0 renal) was over 100 µM. For the same molecule, the TGI (UACC-62 melanoma) was over 100 µM.

O=C1C(Cl)=C(Nc2ccccn2)C(=O)c2ccccc21 was tested, and the GI50 (UACC-257 melanoma) was 1.91 µM, the TGI (UACC-257 melanoma) was 3.84 µM and the GI50 (T-47D breast) was 3.1 µM. For the same molecule, the TGI (T-47D breast) was 10.2 µM, the GI50 (HOP-92 NSCLC) was 3.17 µM and the TGI (HOP-92 NSCLC) was 9.84 µM. It also gave a GI50 (MCF7 breast) of 1.96 µM, a TGI (MCF7 breast) of 4.12 µM and a GI50 (MDA-MB-435) of 2.02 µM. For the same molecule, the TGI (MDA-MB-435) was 3.96 µM, the GI50 (HCT-15 colon) was 3.54 µM and the TGI (HCT-15 colon) was over 100 µM. It also gave a GI50 (HT29 colon) of 26.2 µM, a TGI (HT29 colon) of 62.5 µM and a GI50 (786-0 renal) of 13.1 µM. The TGI (786-0 renal) was 26.3 µM, the GI50 (UACC-62 melanoma) was 2.1 µM and the TGI (UACC-62 melanoma) was 3.95 µM.

Molecule COc1cc(CCNc2nc3cc(N)cc(N)c3nc2-c2ccccc2)cc(OC)c1 has a GI50 (UACC-257 melanoma) of 1.76 µM, a TGI (UACC-257 melanoma) of 3.61 µM and a GI50 (T-47D breast) of 1.74 µM. The TGI (T-47D breast) was 3.8 µM, the GI50 (HOP-92 NSCLC) was 1.61 µM and the TGI (HOP-92 NSCLC) was 3.44 µM. For the same molecule, the GI50 (MCF7 breast) was 1.71 µM, the TGI (MCF7 breast) was 3.89 µM and the GI50 (MDA-MB-435) was 1.77 µM. The TGI (MDA-MB-435) was 3.5 µM, the GI50 (HCT-15 colon) was 2.43 µM and the TGI (HCT-15 colon) was 7.42 µM. For the same molecule, the GI50 (HT29 colon) was 1.93 µM, the TGI (HT29 colon) was 4.87 µM and the GI50 (SF-295 CNS) was 1.77 µM. The TGI (SF-295 CNS) was 3.47 µM, the GI50 (786-0 renal) was 2 µM and the TGI (786-0 renal) was 3.99 µM. It also gave a GI50 (UACC-62 melanoma) of 1.81 µM and a TGI (UACC-62 melanoma) of 3.36 µM.

Cc1ccc(C(CC(=O)c2ccccc2)C(C(=O)c2ccccc2)C(c2ccc(C)cc2)C2C(=O)NC(=S)NC2=O)cc1 (stereo not drawn) was tested, and the GI50 (UACC-257 melanoma) was 13.4 µM, the TGI (UACC-257 melanoma) was over 50 µM and the GI50 (T-47D breast) was 5.78 µM. For the same molecule, the TGI (T-47D breast) was over 50 µM, the GI50 (HOP-92 NSCLC) was 11 µM and the TGI (HOP-92 NSCLC) was over 50 µM. The GI50 (MCF7 breast) was 10.6 µM, the TGI (MCF7 breast) was over 50 µM and the GI50 (MDA-MB-435) was 14.6 µM. It also gave a TGI (MDA-MB-435) of over 50 µM, a GI50 (HCT-15 colon) of 17 µM and a TGI (HCT-15 colon) of over 50 µM. For the same molecule, the GI50 (HT29 colon) was 28.1 µM, the TGI (HT29 colon) was over 50 µM and the GI50 (SF-295 CNS) was 12.2 µM. It also gave a TGI (SF-295 CNS) of over 50 µM, a GI50 (786-0 renal) of 26.2 µM and a TGI (786-0 renal) of over 50 µM. The GI50 (UACC-62 melanoma) was 19.5 µM and the TGI (UACC-62 melanoma) was over 50 µM.

COc1ccc(CCN2COc3ccc4ccc(=O)oc4c3C2)cc1OC was tested, and the TGI (UACC-257 melanoma) was over 100 µM, the TGI (T-47D breast) was over 100 µM and the TGI (HOP-92 NSCLC) was over 100 µM. It also gave a TGI (MCF7 breast) of over 100 µM, a TGI (MDA-MB-435) of over 100 µM and a TGI (HCT-15 colon) of over 100 µM. The TGI (HT29 colon) was over 100 µM, the TGI (SF-295 CNS) was over 100 µM and the TGI (786-0 renal) was over 100 µM. It also gave a TGI (UACC-62 melanoma) of over 100 µM.

C=CCCC(O)c1ccc(CCCCCCCCCCC)o1 (stereo not drawn) was tested, and the GI50 (UACC-257 melanoma) was 18.6 µM, the TGI (UACC-257 melanoma) was 33.9 µM and the GI50 (T-47D breast) was 13.8 µM. For the same molecule, the TGI (T-47D breast) was 30.5 µM, the GI50 (HOP-92 NSCLC) was 18.2 µM and the TGI (HOP-92 NSCLC) was 35.9 µM. For the same molecule, the GI50 (MCF7 breast) was 20.3 µM, the TGI (MCF7 breast) was 50.9 µM and the GI50 (MDA-MB-435) was 16.7 µM. The TGI (MDA-MB-435) was 35.3 µM, the GI50 (HCT-15 colon) was 17 µM and the TGI (HCT-15 colon) was 31.5 µM. For the same molecule, the GI50 (HT29 colon) was 16.1 µM, the TGI (HT29 colon) was 33.5 µM and the GI50 (SF-295 CNS) was 14.2 µM. It also gave a TGI (SF-295 CNS) of 30.4 µM, a GI50 (786-0 renal) of 16.3 µM and a TGI (786-0 renal) of 30.5 µM. It also gave a GI50 (UACC-62 melanoma) of 12.3 µM and a TGI (UACC-62 melanoma) of 25 µM.
